Test results as given in patent US6617158B1, “Method for stimulating the production of fetal hemoglobin producing erythroid cells” (New England Medical Center, priority 1999, dated 2003).

Experiments:
Type in all cases: cell-based, human
[1] = tested on: F+ cells (HbF-containing nucleated red cells) in cultures of mononuclear cells from adult blood; test: Erythroid culture of adult blood mononuclear cells; proportions of F+ cells by two-color flow cytometry
Procedure: (§1) Cells are fixed with 5% formaldehyde in PBS at 37° C. for 1 h, exposed to 100% methanol for 5 min at room temperature, then permeabilized in Solution B of the Caltag Fix & Perm kit during incubation with phycoerythrin-conjugated antibodies to the gamma chain of hemoglobin (HbF) (Cortex) and fluorescein isothiocyanate-conjugated antibodies to the beta chain of hemoglobin (HbA) or to fluorescein isothiocyanate-conjugated antibodies specific for sickle cell hemoglobin (HbS) (Isolabs). After incubation, cells are washed and suspended in PBS with 1% formaldehyde and 0.1 μg/ml Hoechst 33342.
(§2) Cells are processed in a Becton-Dickinson Vantage flow cytometer/cell sorter with dual laser excitation (UV and 488 nm). Intact nucleated cells are selected by gating on UV-excited Hoechst […] fluorescence (430 nm) which yielded DNA histograms as well as cell cycle information by BudR-induced fluorescence quenching. Bohmer, Cell Tissue Kinet. 12: 101-110 (1979). Phycoerythrin (PE) and Fluorescein isothiocyanate (FITC) are excited at 488 nm and measured at 530 nm and 575 nm, […]. Correlated fluorescence values are recorded with appropriate color compensation. The accuracy of color compensation over 4 logs of fluorescence values is limited. To obtain absolute cell counts from the relative particle counts that a flow cytometer provides, known amounts of fluorescent plastic beads (Coulter Immunobrite Level IV) are added to the cell suspensions. Bohmer, Cell Tissue Kinet. 17: 593-600 (1984).
Blood samples were kept at room temperature and processed as soon as possible (between 2 h and 24 h) after collection. The blood was diluted 1:4 with phosphate buffered saline (PBS), the mononuclear cells isolated by density gradient (density 1.077), washed in PBS with 1% BSA (bovine serum albumin) and cultured without further processing in standard 6-well plates, 3-5 ml per well, at a maximum density of 0.3 million/ml. The standard medium (referred to as “control” medium) comprised a mixture of 2/3 Iscoves MDM and 1/3 RPMI1640, containing methylcellulose (0.9%), C—CHS (1%), EPO (1 U/ml), SCF (20 ng/ml), IL3 (10 ng/ml), insulin (3 μg/ml), iron-saturated transferring (70 μg/ml), mercaptoethanol ([…]). Cytokines were from R&D Systems, Minneapolis, Minn. or Genzyme, Cambridge, Mass.
A relatively brief exposure to TGF-beta during the first few days of cell culture caused a lasting shift towards HbF expression with no reduction in subsequent clonal expansion (see data below). […]
The effect of TGF-beta treatment on cell cultures was examined and compared to the effect of serum. […] On day 7, cultures containing hundreds of colonies were turned into single-cell suspensions and the correlated contents of HbA and HbF measured by flow cytometry (FIG. 1). […]

[2] = tested on: F+ and F-A+ cells in cultures of mononuclear cells from adult blood; test: Absolute numbers of F+ and F-A+ cells per culture and long-term proliferation
Procedure: FIG. 5A is an example of a time course from one experiment. Cultures were treated with TGF-beta for 4 days, then propagated without TGF-beta, with further subcultivation and dilution on days 7 (1:10), 10 (1:5) and 13 (1:5). Absolute numbers of F+ and F−A+ cells per culture were determined on days 7, 10, 13 and 16. Total cell numbers were calculated using preceding culture dilution factors in the following manner: at each time of analysis, some of the cells were removed for counting, those that go back into the culture after counting are seeded with a dilution of fresh medium, to avoid medium exhaustion. Therefore, the actual numbers in the plates increase only between seeding and harvest. To calculate cell production over the whole culture time, it is necessary to multiply the counted cell numbers in the plates with all previous culture dilution factors. Closed symbols depict data from F−A+ cells, open symbols show F+ cells, and triangles show TGF-beta-treated cultures, while circles show the controls.
FIG. 5B is a graph indicating the TGF-beta-induced change of total F+ and F− cell numbers, shown as ratio of N(TGF)/N(CON). Cultures were treated with TGF-beta for 4 days., then propagated without TGF-beta, with further subcultivation and dilution on days 7 (1:10), 10 (1:5) and 13 (1:5). Absolute numbers of F+ and F−A+ cells per culture were determined on days 7, 10, 13 and 16. Individual experiments are distinguished by different symbols. […] Median values are indicated by horizontal bar.
as §2
Cultures that were treated with TGF-beta from day 0-4 were sub-cultivated again on days 7, 10 and 13, and the total numbers of F+ and F−A+ cells per culture were determined on days 7, 10, 13 and 16. […] Between day 7 and 10, both cell types in both cultures proliferated at approximately the same rate. After day 10, in control cultures, the proliferation decreased strongly and equally for both F+ and F−A+ cells, maintaining the ratio. No secondary colonies were seen following the subcultivation on day 13. In contrast, the proliferation in TGF-beta-treated cultures continued for much longer for both F+ and F−A+ cells. The F−A+ cell numbers were gradually reducing the gap with F+ cells, in agreement with the gradually decreasing proportions of F+ cells shown in FIG. 4. The number of days for which the proliferation of TGF-beta-treated cultures could be maintained was highly variable between donors and appeared to correlate with the initial numbers of clonogenic cells per ml of blood. […]

[3] = tested on: secondary erythroid colonies; test: Secondary erythroid colony counts after re-seeding (cell cycle effect); conditions: first few days of treatment
Procedure: Cell cultures were seeded in the presence (TGF) and absence (CON) of TGF-beta and on days 1, 2, 3 and 4 washed and re-seeded in the absence of TGF-beta. On day 9, the secondary colonies/clusters were counted and plotted as a function of the number of the day of treatment before reseeding. […] Statistics from 5 experiments are shown.
To test the cell cycle effect of TGF-beta during the first 4 days of treatment, the numbers of secondary erythroid colonies that developed upon re-seeding the cultures after different duration of TGF-beta exposure were counted (FIG. 7). A decrease in the number of secondary colonies upon re-seeding would reflect a decrease in the number of divisions undergone by colony forming cells before the cultures were re-seeded as a single-cell suspension. However, the secondary colonies became smaller and more numerous, without much effect of TGF-beta. The numbers of secondary colonies began to increase between day 1 and 2, equally in TGF-beta and controls. Between days 3 and 4 the beginnings of inhibition by TGF-beta could be seen.

[4] = tested on: Mononuclear cells from one sickle cell patient; test: Sickle cell erythropoiesis culture; HbF vs HbS flow cytometry profiles; conditions: continuous culture in 30% FCS or 10 ng/ml TGF-beta, day 7
Procedure: as §1
Mononuclear cells from one sickle cell patient were continuously cultured in 30% FCS or 10 ng/ml TGF-beta. The cells were labeled with the same antibodies to HbF but with antibodies specific for HbS instead of HbA.

[5] = tested on: F+ cells (HbF-containing nucleated red cells) in cultures of mononuclear cells from adult blood; test: Erythroid culture of adult blood mononuclear cells; proportions of F+ cells by two-color flow cytometry; remark: listed apart in the source

## TGF-beta: recombinant human transforming growth factor beta-1
[1]; 10 ng/ml, exposure day 0-4 or continuous, analysis day 7
  effect on proportions of F+ cells: increased the proportions of F+ cells dramatically
[1]; 4-day treatment, then control medium, re-seeded days 7 and 10
  increased proportions of F+ cells during further culture growth: maintained
[1]; as function of exposure time (0-4 days), analysed day 7, 30% FCS or TGF-beta
  proportions of F+ cells, plateau: 80%
[1]; continuous treatment up to day 7 (not the 4-day treatment)
  total cell counts: strongly reduced total cell counts
[2]; 2 (out of 5) experiments, proliferating beyond 3 weeks
  N(TGF)/N(CON) of F+ cells: exceeding 100
[2]; between days 7 and 10, treatment day 0-4
  total numbers of F-A+ cells versus control cultures: dramatically reduced
[2]; day 7, treatment day 0-4
  reduction of F-A+ cell numbers: ca. 10 fold
[2]; day 7, treatment day 0-4, median
  F+ cell numbers, ratio N(TGF)/N(CON): 1
[2]; on average, with increasing culture time, treatment day 0-4
  F+ population level versus controls: ca. 10 fold
[3]
  effect on cytokine-dependent proliferation (secondary colony numbers): did not interfere with cytokine-dependent proliferation
[4]
  relative F+ cell numbers: increase in relative F+ cell numbers
[5]; added from day 7, after approximately 2 days of treatment, 8-16-cell stage
  growth of newly developing secondary colonies: complete and lasting growth arrest
[5]; newly supplied beginning on day 7
  effect on F+ proportions when added at later culture phase: no effect on F+ proportions
[5]; one day exposure between days 2 and 4
  proportions of F+ cells after exposure for only one day: substantially increased

## TGF-beta 3: form of transforming growth factor beta titrated against TGF-beta 1
[5]; titration, treatment began day 2, re-seeded day 4, F+ on day 7
  relative potency to increase proportions of F+ cells: in between TGF-beta 1 and TGF-beta 2

B1: TGF-beta 2: form of transforming growth factor beta titrated against TGF-beta 1 (protein, UniProt P61812 303-414, looked up)
Transforming growth factor …: ALDAAYCFRNVQDNCCLRPLYIDFKRDLGWKWIHEPKGYNANFCAGACPYLWSSDTQHSRVLSLYNTINPEASASPCCVSQDLEPLTILYYIGKTPKIEQLSNMIVKSCKCS
modifications: Transforming growth factor beta-2
[5]; titration, treatment began day 2, re-seeded day 4, F+ on day 7, average of two experiments
  relative effectiveness versus TGF-beta 1 to increase proportions of F+ cells: ~100 times
